“Also recorded” adds a separate entry of the source.
What was measured:
adult zebrafish = assay: Social preference in adult zebrafish; type: in vivo, zebrafish (Danio rerio)
Experimental: Adult and larval behavioural testing was performed between 9 AM and 4 PM. All fish were fed prior to and after experiments, and larvae were also given an additional feed at midday. Adult fish were of a 1:1 sex ratio, and focal fish and stimulus fish were size-matched. Adult fish and shoals were filmed using a web camera and Debut Video Capture Software (NCH Software, Greenwood Village, USA), and videos were analysed using EthoVision version 11 (Noldus, Wageningen, the Netherlands).
The experimental setup comprised one large test tank (60 cm × 30 cm), and two smaller side tanks (15 cm × 30 cm) positioned at the short ends of the test tank; see Fig. 4. The test tank (the arena) was divided into five different zones used when tracking the video recordings, see Fig. 4. The zone closest to the stimuli shoal was always designated Zone 1, and the zone furthest away from the shoal was always designated Zone 5. […] All tanks were visually isolated from each other during the acclimation period of 10 minutes.
A stimulus shoal of eight zebrafish, with a 1:1 sex ratio, was placed in one of the side tanks, while the opposite side tank remained empty. Focal fish and shoal fish were selected to be of similar size in order not to evoke adverse reactions, such as anxiety or aggression. The experiments were thoroughly randomized between treatment groups for time of day and shoal used. The stimulus fish had been habituated to the room and aquarium for 24 hours prior to the start of the experiments. Two shoals were used as stimulus shoals throughout the experiment. The side for the stimulus shoal was alternated in order to avoid any potential place preference of the focal fish. The reasons for using two shoals for all focal fish were to decrease the behavioural variation in focal fish that may be caused by inter-shoal variations, to decrease the stress in stimulus fish caused by netting and transferring them between tanks that may be transferred to the focal fish, and to limit the number of fish used according to the 3 R principles. There were no statistical significant effects of day of testing (One-way ANOVA; p > 0.7), time of testing (One-way ANOVA; p > 0.5), or the identity of the stimulus shoal (shoal 1 versus shoal 2; un-paired t-test; p > 0.1) on the total time the focal fish spent in Zone 1 (closest to the shoal) during the 15 minutes test time.
At 24 hours prior to the experiment, zebrafish were weighed, placed into separate holding tanks, and brought to the experimental room in order to acclimatise. The following day fish were intraperitoneally injected with vehicle Ringer’s solution (13 females and 8 males), or the antagonist (11 females and 10 males). The Ringer’s solution recipe was retrieved from the Zebrafish Information Network (ZFIN, University of Oregon, Eugene, OR, USA).
Intraperitoneal injections were conducted using a 1 mL U-100 BD MicroFine™ Insulin Syringe (Becton Dickinson France S.A.S., France). Post injection, animals were placed into their holding tanks for one hour to recover. […] Following this, focal fish were individually placed in the middle of the test tank and left to freely move around for ten minutes (acclimation period) before visual partitions were removed, which initiated the start of the test period (15 minutes).
All data for the social preference and novel tank diving experiments in adults were extracted as processed means per minute from EthoVision. For the shoaling experiments, raw data was exported from EthoVision, and then post-processed by an in-house script written in Python 3.4, in order to compute IFD, NND, and FND as described elsewhere. For timelines, repeated measures analysis of variance (RM-ANOVA) was used. For pairwise comparisons of total means between groups, Student’s T-tests were used.

[1] = cited from earlier work
Avpr1ab = target: T1, Avpr1ab (Danio rerio, UniProt A0A8M1P6E3); assay: Inositol phosphate accumulation assay, antagonism of 1 μM zVP at Avpr1ab; type: cell-based, zebrafish; settings: stimulated with agonist; antagonist up to 1 μM
T1 sequence (A0A8M1P6E3 1-410): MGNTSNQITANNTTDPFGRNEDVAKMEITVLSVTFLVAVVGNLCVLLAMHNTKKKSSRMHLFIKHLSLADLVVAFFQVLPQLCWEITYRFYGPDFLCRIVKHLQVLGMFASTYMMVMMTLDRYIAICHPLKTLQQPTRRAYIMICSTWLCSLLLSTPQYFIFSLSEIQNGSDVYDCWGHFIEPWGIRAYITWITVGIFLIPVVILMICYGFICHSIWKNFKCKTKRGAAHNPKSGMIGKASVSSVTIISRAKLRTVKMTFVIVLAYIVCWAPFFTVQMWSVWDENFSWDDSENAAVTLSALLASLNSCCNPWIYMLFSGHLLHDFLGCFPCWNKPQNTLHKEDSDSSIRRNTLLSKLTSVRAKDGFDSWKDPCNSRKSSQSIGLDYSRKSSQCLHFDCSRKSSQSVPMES
Experimental: The receptor constructs were ordered from GeneScript and subcloned into a pcDNA3.1/CT-GFP-TOPO vector. The coding sequences of the GenBank entries NM_001199370.1 (oxtr), NM_001199369.1 (oxtrl), NM_001301114.1 (avpr1aa), and NM_001297676.1 (avpr1ab) were used for synthesis. The stop codons were removed, and an additional […] was added to facilitate hybrid protein expression with GFP in frame from the vector. The GCCACC Kozak sequence was inserted before the start codons. After transformation of the plasmid constructs into TOP10 competent cells (Thermo Fisher Scientific), the Maxiprep (Thermo Fisher Scientific) method was used to amplify the plasmids for transfection.
The Inositol phosphate accumulation assay was performed according to previous descriptions to measure the potency of different ligands for zebrafish different oxytocin related receptors. Each receptor construct was transfected into HEK293 cells using Lipofectamine 2000 (Thermo Fisher Scientific). Myo2-^3H-inositol (PerkinElmer) at 3 μCi/mL was added the day after transfection. […] Samples were mixed with OptiPhase HiSafe (PerkinElmer Waltham, MA, USA) and ^3H radioactivity was measured with a Tri-Carb 2910TR liquid scintillation counter (PerkinElmer Waltham, MA, USA). […]

Cc1ccccc1N1CCN(S(=O)(=O)C[C@]23CC[C@H](C[C@@H]2NC(=O)[C@@H](N)CCS(C)(=O)=O)C3(C)C)CC1 [L-368,899]
Social preference in adults, in words (adult zebrafish; 100 µg per gram fish i.p.): decreased social preference; also recorded: inhibits social preference
Social preference in adults, in words (adult zebrafish; 100 µg per gram fish i.p., listed as antagonist): did not completely abolish social preference
Time in all the other zones vs vehicle (adult zebrafish; 15 min test, 100 µg per gram fish i.p.): significantly more time
Time in Zone 1 (closest to the shoal) vs vehicle (adult zebrafish; 15 min test, 100 µg per gram fish i.p., t(39) = 3.339, p = 0.0016): significantly less time
Distance from shoal vs vehicle (adult zebrafish; 15 min test, F(1,39) = 10.79, p = 0.0022): significantly further away
Social behaviour: Distance to shoal (adult zebrafish; adult social preference, 100 µg per gram fish i.p., 1 h before test, mean ± SEM, vehicle 11.0 ± 1.8): 19.7 ± 1.9 cm
Social behaviour: Social zone duration (adult zebrafish; adult social preference, 100 µg per gram fish i.p., 1 h before test, mean ± SEM, vehicle 45.9 ± 2.3): 34.5 ± 2.4 s/min
Locomotion: Distance (adult zebrafish; adult social preference, 100 µg per gram fish i.p., 1 h before test, mean ± SEM, vehicle 528 ± 19, p = 0.25): 496 ± 20 cm/min
Activity parameters vs vehicle, social preference test (adult zebrafish; average distance p = 0.25, average velocity p = 0.32): no significant differences
Approach to shoal, acclimation vs test period (adult zebrafish; paired T-test, average distance to shoal, antagonist t(19) = 5.983, p = 9e-6): responded to the visual stimuli of a conspecific shoal
Social preference, pilot experiment, 5 μg per gram fish (adult zebrafish; pilot, 5 μg L-368,899 per gram fish): did not affect social preference
Social preference, pilot experiment, 50 μg per gram fish (adult zebrafish; pilot, 50 μg L-368,899 per gram fish): did not affect social preference
half-life [1]: about 2 hours
Antagonism at Avpr1ab, in words (Avpr1ab): did not block the response and not and without reducing the effect of the peptide agonist

— publication PMC7096398, “Oxytocin Receptors Regulate Social Preference in Zebrafish” (Scientific Reports, 2020)
